“Also recorded” adds a separate entry of the source.
How the values were obtained:
[1] = molecular target: Beta-3 Adrenergic Receptor (Homo sapiens (Human), UniProt P13945); assay: HTRF cAMP antagonist assay (IC50 determination); type: cell-based; conditions: CHO-K1 cells stably expressing recombinant receptor; antagonism of isoproterenol at EC90; cAMP readout
Method in brief: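 In this functional readout, recombinant CHO-K1 cells received compound, then isoproterenol at its EC90. After 1 h at room temperature, cAMP levels were determined by HTRF using an on-plate standard curve, and IC50 values were fitted.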

[2] = test system: normal rats; assay: Attenuation of negative contractile effect of BRL 37344 on left ventricular pressure in normal rats; type: in vivo, rat; conditions: test compound infusion 3, 10, 30 or 60 mg/kg, BRL 37344 bolus 3 μg/kg
Protocol: (§1) Beta-3 adrenergic receptor antagonists were evaluated for effects on cardiac contractility in normal and chronic heart failure (CHF) rats. Because beta-3 adrenergic receptor expression is weak in the normal rat heart, compounds were evaluated for the ability to attenuate the negative contractile effects of the beta-3 adrenergic receptor agonist BRL 37344 (Tocris Bioscience, Bristol, UK) in the normal rats. Because beta-3 adrenergic receptor expression is higher in the rat heart with CHF, a compound was evaluated for the ability to improve contractility compared to baseline in this CHF rat model.
A direct determination of left ventricular function was used for all rats to evaluate the effects of compounds on left ventricular contractility. Right carotid artery catheterization was used for contractility measurements. The rats were anesthetized with an intraperitoneal injection of INACTIN® (Cat #T-133, Sigma, St. Louis, Mo.) (100 mg/kg body weight), and a Millar MIKRO-TIP® pressure catheter (Cat #SPR-320NR, Millar, Inc., Houston, Tex.) was passed through the carotid artery into left ventricle. Left ventricular pressure (LVP) was monitored by LabChart with POWERLAB® Data Acquisition System (ADlnstruments, Sydney, Australia).
Jugular vein catheterization was used for compound administration. A silastic catheter (Cat #427411, BD, Franklin Lakes, N.J.) was introduced into the jugular vein, and a right venous catheter was connected to an automated drug delivery system (11 Plus Syringe Pump, Harvard Apparatus, Holliston, Mass.).
In the normal rats, 3 mg/kg, 10 mg/kg, 30 mg/kg, or 60 mg/kg of test compounds were administered starting 30-45 minutes after catheter implantation. A bolus injection of BRL 37344 (3 μg/kg) was administered via the left jugular vein 15-20 minutes after test compound infusion was started, and five minutes before compound infusion was stopped. A blood sample (800 μl) was then taken from the left venous catheter five minutes after the bolus injection of BRL 37344 (FIG. 25).

[3] = test system: chronic heart failure (CHF) rats; assay: Left ventricular contractility in chronic heart failure (CHF) rats; type: in vivo, rat
Protocol: as §1, with “model. […]” for “model.”
Heart failure was evaluated weekly following surgery by testing impaired left ventricular function by echocardiography. Left ventricle end-diastolic volume (LVEDV) and left ventricle end-systolic volume (LVESV) were measured for at least three consecutive cardiac cycles in long-axis view images. Ejection Fraction (EF %) was calculated using the following formula: EF %=(LVEDV−LVESV)/LVEDV. […]
A direct determination of left ventricular function was used for all rats to evaluate the effects of compounds on left ventricular contractility. […] Left ventricular pressure (LVP) was monitored by LabChart with POWERLAB® Data Acquisition System (ADlnstruments, Sydney, Australia). […]
Development of CHF was monitored by echocardiography in rats after the surgically-induced myocardial infarction. […]

Sequence of Beta-3 Adrenergic Receptor (P13945 whole entry, species assumed): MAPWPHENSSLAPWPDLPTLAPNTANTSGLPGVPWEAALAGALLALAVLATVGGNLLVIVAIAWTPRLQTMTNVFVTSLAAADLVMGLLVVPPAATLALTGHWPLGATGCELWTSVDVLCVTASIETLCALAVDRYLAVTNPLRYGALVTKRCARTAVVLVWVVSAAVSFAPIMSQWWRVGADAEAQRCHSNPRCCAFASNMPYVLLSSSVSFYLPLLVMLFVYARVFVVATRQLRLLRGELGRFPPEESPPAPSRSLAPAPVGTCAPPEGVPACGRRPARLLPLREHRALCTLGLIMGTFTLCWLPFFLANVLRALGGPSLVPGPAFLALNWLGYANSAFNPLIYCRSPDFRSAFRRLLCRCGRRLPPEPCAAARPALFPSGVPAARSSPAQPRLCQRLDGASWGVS

Structure (SMILES) | IC50 [1] [nM] | inhibition of the negative effect of beta-3 adrenergic receptor agonist BRL on LVP [2] | contractility compared to baseline ([3]; rat with CHF, infusion 10 mg/kg then 30 mg/kg, 10 minutes each) | inhibition of negative effects of BRL on LVP in a rat with heart failure (figure legend) ([3]; rat with heart failure, FIG. 32)
O=S(=O)(CCO)c1cccc(OC[C@@H](O)CN[C@H]2COC3(CCN(S(=O)(=O)c4cnc5ccccc5c4)CC3)C2)c1 [Compound 88, (S)-1-(3-(2-hydroxyethylsulfonyl)phenoxy)-3-((R)-8-(quinolin-3-ylsulfonyl)-1-oxa-8-azaspiro[4.5]decan-3-ylamino)propan-2-ol] | 25.1 | dose-dependently inhibited; also recorded: inhibition of negative effects of BRL on LVP | trend toward improved contractility with increased dosage | inhibition of negative effects of BRL on LVP
NC(=O)CS(=O)(=O)c1cccc(OC[C@@H](O)CN[C@H]2COC3(CCN(S(=O)(=O)c4cnc5ccccc5c4)CC3)C2)c1 [Compound 123, 2-(3-((S)-2-hydroxy-3-((R)-8-(quinolin-3-ylsulfonyl)-1-oxa-8-azaspiro[4.5]decan-3-ylamino)propoxy)phenylsulfonyl)acetamide] | 53.2 | dose-dependently inhibited; also recorded: inhibition of negative effects of BRL on LVP | – | –
CN1CCOc2ncc(S(=O)(=O)N3CCC4(CC3)C[C@@H](NC[C@H](O)COc3cccc(S(=O)(=O)C5CC5)c3)CO4)cc21 [Compound 154, (S)-1-(3-(cyclopropylsulfonyl)phenoxy)-3-((R)-8-(1-methyl-2,3-dihydro-1H-pyrido[2,3-b][1,4]oxazin-7-ylsulfonyl)-1-oxa-8-azaspiro[4.5]decan-3-ylamino)propan-2-ol] | 17.5 | dose-dependently inhibited; also recorded: inhibition of negative effects of BRL on LVP | – | –
CCOc1ccc(-c2ccc(CN)cc2)cc1S(=O)(=O)N1CCC2(CC1)C[C@H](NC[C@H](O)COc1cccc(S(=O)(=O)C3(CO)CC3)c1)CO2 [Compound 163, (S)-1-((S)-8-(4′-(aminomethyl)-4-ethoxybiphenyl-3-ylsulfonyl)-1-oxa-8-azaspiro[4.5]decan-3-ylamino)-3-(3-(1-(hydroxymethyl)cyclopropylsulfonyl)phenoxy)propan-2-ol] | 17.3 | dose-dependently inhibited; also recorded: inhibition of negative effects of BRL on LVP | – | –
CCn1cc(S(=O)(=O)N2CCC3(CC2)C[C@@H](NC[C@H](O)COc2cccc(S(C)(=O)=O)c2)CO3)c(=O)c2ccccc21 [Compound 310, 1-ethyl-3-((R)-3-((S)-2-hydroxy-3-(3-(methylsulfonyl)phenoxy)propylamino)-1-oxa-8-azaspiro[4.5]decan-8-ylsulfonyl)quinolin-4(1H)-one] | 37.6 | dose-dependently inhibited; also recorded: inhibition of negative effects of BRL on LVP | – | –
